Laboratory results reported in US20170320848A1, “COMPOUNDS FOR USE IN ANTHELMINTHIC TREATMENT” (Bayer Animal Health GMBH, priority 2014, published 2017).
Like-named read-outs stand apart in the source and are kept apart here.

Legend:
[1] = system: Cooperia curticei; test: Cooperia curticei assay (COOPCU), larval mortality; assay type: cell-based; details: Cooperia curticei, 120 h, after 5 days, read-out: activity (percentage of larval mortality); for mortality at 20 ppm: application rate 20 ppm
Procedure: Cooperia Curticei—Assay (COOPCU)
(§1) Solvent: dimethyl sulfoxide
(§2) To produce a suitable preparation, 10 mg of active compound are dissolved in 0.5 ml solvent, and the concentrate is diluted with “Ringer's solution” to the desired concentration.
Approximately 40 nematode larvae (Cooperia curticei) are transferred into a test tube containing the compound solution.
After 5 days percentage of larval mortality is recorded. 100% efficacy means all larvae are killed; 0% efficacy means no larvae are killed.

[2] = system: Haemonchus contortus; test: Haemonchus contortus assay (HAEMCO), larval mortality; assay type: cell-based; details: after 5 days
Procedure: Haemonchus Contortus—Assay (HAEMCO)
as §1, §2
Approximately 40 larvae of the red stomach worm (Haemonchus contortus) are transferred into a test tube containing compound solution.
After 5 days percentage of larval mortality are recorded. 100% efficacy means all larvae are killed, 0% efficacy means no larvae are killed.

[3] = Measurement of LogP values by HPLC on reversed phase columns (EEC directive 79/831 Annex V.A8); assay type: physicochemical; details: acidic range, 0.1% formic acid in water and acetonitrile as eluent; for chromatographic logP: read-out: logP (HCOOH)[a]
[4] = system: Nippostrongylus brasiliensis; test: Nippostrongylus brasiliensis assay (NIPOBR), acetylcholine esterase readout; assay type: cell-based; details: read-out: activity (reduction of AChE compared to negative control)
Procedure: Nippostrongylus Brasiliensis—Assay (NIPOBR)
Adult Nippostrongylus brasiliensis were washed with saline buffer containing 100 U/ml penicillin, 0.1 mg/ml streptomycin and 2.5 μg/ml amphotericin B. Test compounds were dissolved in DMSO and worms were incubated in medium in a final concentration of 10 μg/ml (10 ppm) respectively 1 μg/ml (1 ppm). An aliquot of the medium was used to determine the acetylcholine esterase activity in comparison to a negative control. The principle of measuring acetylcholine esterase as readout for anthelmintic activity was described in Rapson et al (1986) and Rapson et al (1987).

[5] = system: Meloidogyne incognita; test: Meloidogyne incognita assay (MELGIN), gall formation on salad seedlings; assay type: in vivo; details: application rate 20 ppm, after 14 days
Procedure: Meloidogyne Incognita—Assay (MELGIN)
Solvent: 125.0 parts by weight of acetone
To produce a suitable preparation, 1 part by weight of active compound is mixed with the stated amount of solvent, and the concentrate is diluted with water to the desired concentration.
Vessels are filled with sand, a solution of the active ingredient, a suspension containing eggs and larvae of the southern root-knot nematode (Meloidogyne incognita) and salad seeds. The salad seeds germinate and the seedlings grow. Galls develop in the roots.
After 14 days the nematicidal activity is determined on the basis of the percentage of gall formation. 100% means no galls were found and 0% means the number of galls found on the roots of the treated plants was equal to that in untreated control plants.

[6] = Haemonchus contortus, 120 h, application rate 20 ppm, read-out: activity (percentage of larval mortality)

Structure (SMILES) | mortality at 20 ppm [1] | mortality at 20 ppm [2, 6] | chromatographic logP [3] | inhibition at 10 µg/mL [4] | nematicidal activity (percentage of gall formation) [5] | other results
O=C(NCC(F)(F)c1ccc(-c2ccc(Cl)cc2)cc1C(F)(F)F)c1cccnc1C(F)(F)F [Example 18] | 100% | 100% | – | – | – | –
O=C(NCC(F)(F)c1c(F)cc(-c2ccc(F)cc2)cc1F)c1ccccc1C(F)(F)F [Example 16] | 100% | 100% | – | – | – | chromatographic logP ([3]; reversed phase HPLC columns): 3.95
O=C(NCC(F)(F)c1ccc(-c2ccc(F)cc2F)cc1Cl)c1ccccc1C(F)(F)F [Example 36] | 100% | 100% | 4.22 | ≥ 75% | – | –
Cc1cc(-c2ccc(F)cc2)ccc1C(F)(F)CNC(=O)c1ccccc1C(F)(F)F [Example 38] | 100% | 100% | 4.16 | ≥ 75% | 100% | –
O=C(NCC(F)(F)c1ccc(-c2ccc(C(F)(F)F)c(F)c2)cc1Cl)c1ccccc1C(F)(F)F [Example 22] | 100% | 90% | 4.62 | ≥ 75% | – | –
O=C(NCC(F)(F)c1ccc(-c2cc(F)cc(F)c2)cc1Cl)c1ccccc1C(F)(F)F [Example 35] | 100% | 100% | 4.3 | ≥ 75% | 100% | –
O=C(NCC(F)(F)c1ccc(-c2ccc(Cl)cc2)cc1Cl)c1ccccc1C(F)(F)F [Example 1] | 100% | 100% | 4.58 | – | – | inhibition at 10 µg/mL ([4]; 10 μg/ml, adult worms): ≥ 75%
O=C(NCC(F)(F)c1ccc(-c2ccc(F)c(C(F)(F)F)c2)cc1Cl)c1ccccc1C(F)(F)F [Example 21] | 100% | 90% | 4.55 | ≥ 75% | – | –
O=C(NCC(F)(F)c1ccc(-c2c(F)cccc2F)cc1Cl)c1ccccc1C(F)(F)F [Example 31] | 100% | 80% | – | – | – | chromatographic logP ([3]; reversed phase HPLC columns): 3.99
O=C(NCC(F)(F)c1ccc(-c2ccc(Cl)cc2)cc1C(F)(F)F)c1ccccc1C(F)(F)F [Example 13] | 100% | 90% | – | – | – | inhibition at 10 µg/mL ([4]; 10 μg/ml, adult worms): ≥ 75%
O=C(NCC(F)(F)c1ccc(-c2ccc(F)cc2)cc1Cl)c1cccnc1C(F)(F)F [Example 9] | 100% | 100% | – | – | 100% | chromatographic logP ([3]; reversed phase HPLC columns): 3.68
O=C(NCC(F)(F)c1ccc(-c2ccc(F)cc2)cc1C(F)(F)F)c1ccccc1C(F)(F)F [Example 12, N-(2,2-Difluoro-2-(4′-fluoro-3-(trifluoromethyl)-[1,1′-biphenyl]-4-yl)ethyl)-2-(trifluoromethyl)benzamide] | 100% | 100% | – | – | – | inhibition at 10 µg/mL ([4]; 10 μg/ml, adult worms): ≥ 75%
O=C(NCC(F)(F)c1ccc(-c2cc(F)c(F)c(F)c2)cc1Cl)c1ccccc1C(F)(F)F [Example 32] | 100% | 100% | 4.44 | ≥ 75% | 100% | –
N#Cc1ccc(-c2ccc(C(F)(F)CNC(=O)c3ccccc3C(F)(F)F)c(Cl)c2)cc1C(F)(F)F [Example 97] | – | – | – | – | – | logP (HCOOH)[a] [3]: 4.12; activity (percentage of larval mortality) ([2]; application rate 20 ppm): 80%
O=C(NCC(F)(F)c1ccc(-c2ccccc2)cc1Cl)c1ccccc1C(F)(F)F [Example 2] | 100% | 100% | 4.05 | – | – | inhibition at 10 µg/mL ([4]; 10 μg/ml, adult worms): ≥ 75%
COc1cc(-c2ccc(F)cc2)ccc1C(F)(F)CNC(=O)c1ccccc1C(F)(F)F [Example 37] | 100% | 90% | 3.89 | ≥ 75% | – | –
CSc1ccc(-c2ccc(C(F)(F)CNC(=O)c3ccccc3C(F)(F)F)c(Cl)c2)cc1 [Example 26] | 100% | 100% | – | – | – | chromatographic logP ([3]; reversed phase HPLC columns): 4.43
O=C(NCC(F)(F)c1ccc(-c2ccc(Cl)cc2)cc1F)c1ccccc1C(F)(F)F [Example 5] | 100% | 80% | – | ≥ 75% | – | –

Structure (SMILES) | mortality at 20 ppm [1] | mortality at 20 ppm [2, 6] | chromatographic logP [3] | inhibition at 10 µg/mL [4] | nematicidal activity (percentage of gall formation) [5] | other results
O=C(NCC(F)(F)c1ccc(-c2ccc(Cl)cc2)cc1F)c1cccnc1C(F)(F)F [Example 20] | 100% | 90% | – | – | – | –
O=C(NCC(F)(F)c1ccc(-c2ccc(F)cc2)cc1Cl)c1ccccc1C(F)(F)F [Example 3, N-[2-[2-chloro-4-(4-fluorophenyl)phenyl]-2,2-difluoro-ethyl]-2-(trifluoromethyl)benzamide] | 100% | 100% | 4.14 | – | – | logP (HCOOH)[a] [3]: 4.10; inhibition at 10 µg/mL ([4]; 10 μg/ml, adult worms): ≥ 75%
O=C(NCC(F)(F)c1ccc(-c2ccc(OC(F)(F)F)cc2)cc1C(F)(F)F)c1ccccc1C(F)(F)F [Example 15] | 100% | 90% | – | – | – | –
O=C(NCC(F)(F)c1ccc(-c2ccc(SC(F)(F)F)cc2)cc1Cl)c1ccccc1C(F)(F)F [Example 23] | 100% | 100% | 4.98 | ≥ 75% | – | –
O=C(NCC(F)(F)c1ccc(-c2ccc(F)cc2)cc1C(F)(F)F)c1cccnc1C(F)(F)F [Example 17, N-(2,2-Difluoro-2-(4′-fluoro-3-(trifluoromethyl)-[1,1′-biphenyl]-4-yl)ethyl)-2-(trifluoromethyl)-nicotinamide] | 100% | 100% | – | ≥ 75% | 90% | –
N#Cc1ccc(-c2ccc(C(F)(F)CNC(=O)c3ccccc3C(F)(F)F)c(Cl)c2)cc1F [Example 25] | 100% | 100% | 3.77 | ≥ 75% | 100% | –
O=C(NCC(F)(F)c1ccc(-c2ccc(F)cc2)cc1F)c1ccccc1C(F)(F)F [Example 7, N-(2-(3,4′-Difluoro-[1,1′-biphenyl]-4-yl)-2,2-difluoroethyl)-2-(trifluoromethyl)benzamide] | 100% | 90% | – | – | – | inhibition at 10 µg/mL ([4]; 10 μg/ml, adult worms): ≥ 75%
O=C(NCC(F)(F)c1ccc(-c2ccc(Cl)cc2)cc1Cl)c1cccnc1C(F)(F)F [Example 4] | – | – | – | – | – | chromatographic logP ([3]; reversed phase HPLC columns): 4.14; mortality at 4 ppm ([1]; application rate 4 ppm): 100%; mortality at 4 ppm ([2]; Haemonchus contortus, 120 h, application rate 4 ppm, read-out: activity (percentage of larval mortality)): 90%
O=C(NCC(F)(F)c1ccc(-c2ccc(F)c(F)c2)cc1Cl)c1ccccc1C(F)(F)F [Example 33] | 100% | 100% | 4.26 | ≥ 75% | – | –
O=C(NCC(F)(F)c1ccc(-c2ccc(F)cc2)cc1F)c1cccnc1C(F)(F)F [Example 19] | 100% | 100% | – | – | – | –
COc1cc(-c2ccc(C(F)(F)CNC(=O)c3ccccc3C(F)(F)F)c(Cl)c2)ccc1F [Example 34] | 100% | 100% | – | – | – | chromatographic logP ([3]; reversed phase HPLC columns): 4.09
O=C(NCC(F)(F)c1ccc(-c2cc(F)c(F)c(F)c2)cc1Cl)c1ccccc1Cl [Example 115] | – | – | – | – | 100% | logP (HCOOH)[a] [3]: 4.23
O=C(NCC(F)(F)c1ccc(-c2ccc(F)cc2)cc1Cl)c1nccnc1C(F)(F)F [Example 61] | – | – | – | – | 100% | logP (HCOOH)[a] [3]: 3.85
O=C(NCC(F)(F)c1ccc(-c2ccc(OC(F)F)cc2)cc1Cl)c1ccccc1C(F)(F)F [Example 68] | – | – | – | – | 100% | logP (HCOOH)[a] [3]: 4.03
N#Cc1ccc(-c2ccc(C(F)(F)CNC(=O)c3ccccc3C(F)(F)F)c(Cl)c2)cc1 [Example 27] | 100% | 100% | 3.62 | ≥ 75% | 100% | –
O=C(NCC(F)(F)c1ccc(-c2ccc(OC(F)(F)F)cc2)cc1F)c1ccccc1C(F)(F)F [Example 14] | 100% | 90% | – | – | – | –
N#Cc1ccc(-c2ccc(C(F)(F)CNC(=O)c3ccccc3C(F)(F)F)c(Cl)c2)cc1Cl [Example 105] | – | – | – | – | 100% | logP (HCOOH)[a] [3]: 4.02
